Test results published in patent publication US8597632B2, “Anionic oligosaccharide conjugates” (Glycan Biosciences LLC, priority 2008, dated 2013).

Experiments:
eotaxin-2 (CCL24) = target: T1, eotaxin-2 (CCL24) (Homo sapiens, UniProt O00175); test: BIAcore: inhibition of Eotaxin-2 binding to immobilized heparin; details: % relative to heparin concentration required to inhibit chemokine binding by 50%; heparin set at 100%
T1 construct: host or cells: E. coli
T1 sequence (O00175 27-119): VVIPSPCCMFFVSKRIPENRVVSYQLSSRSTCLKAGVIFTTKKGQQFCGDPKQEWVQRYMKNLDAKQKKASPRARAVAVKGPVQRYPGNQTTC
Description: (§1) The optical phenomenon of surface plasmon resonance is used to monitor physical interactions between molecules. Passing a solution of a potential protein ligand (e.g. IL-4, IL-5, eotaxin-1, eotaxin-2, IL-8 or MCP-1) over a sensor surface to which a target (e.g. heparin) is coupled monitors the real-time binding of protein ligands to the immobilized target. Detection is achieved by measuring refractive index changes very close to the sensor surface. When the refractive index is altered, the angle at which plasmon resonance occurs changes and this change directly correlates with the amount of protein interacting with the surface. A BIAcore 2000 is conveniently used. […]
(§2) Biotinylated heparin is immobilized on the biosensor chip. […] Solutions containing potential protein ligands of interest are injected over the sensor chip surface, and the binding is measured in real time (Fernig, In: Proteoglycan protocols, Ed. R. V. Iozzo, Humana Press, Totowa, N.J., USA, 2001). Baculovirus expressed recombinant human IL-4 (rhIL-4) and baculovirus expressed recombinant human IL-5 (rhIL-5) readily bind to heparin immobilized by this method (see PCT/AU2005/000551). […] Similarly, recombinant human eotaxin-1 (CCL11) expressed in E. coli binds readily to immobilized heparin and binding is specific as there is little eotaxin binding to sensor chips lacking heparin (see 30544601 PCT glycan151). […]

IL-8 (CXCL8) = target: T2, IL-8 (CXCL8) (Homo sapiens, UniProt P10145); test: BIAcore: inhibition of IL-8 binding to immobilized heparin; details: % relative to heparin concentration required to inhibit chemokine binding by 50%; heparin set at 100%
T2 construct: host or cells: E. coli
T2 sequence (P10145 21-99): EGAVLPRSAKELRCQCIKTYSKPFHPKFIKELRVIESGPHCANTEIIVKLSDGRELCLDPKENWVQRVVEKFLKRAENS
Description: as §1, §2

MCP-1 (CCL2) = target: T3, MCP-1 (CCL2) (Homo sapiens, UniProt P13500); test: BIAcore: inhibition of MCP-1 binding to immobilized heparin; details: % relative to heparin concentration required to inhibit chemokine binding by 50%; heparin set at 100%
T3 construct: host or cells: E. coli
T3 sequence (P13500 24-99): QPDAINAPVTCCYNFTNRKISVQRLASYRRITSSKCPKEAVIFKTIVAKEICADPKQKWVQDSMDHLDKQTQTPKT
Description: as §1, §2

[1] = target: T4, recombinant human IL-4 (rhIL-4) (Homo sapiens, UniProt P05112); test: BIAcore: inhibition of IL-4 binding to a heparin chip; details: End point heparin
T4 construct: host or cells: baculovirus expression system
T4 sequence (P05112 25-153): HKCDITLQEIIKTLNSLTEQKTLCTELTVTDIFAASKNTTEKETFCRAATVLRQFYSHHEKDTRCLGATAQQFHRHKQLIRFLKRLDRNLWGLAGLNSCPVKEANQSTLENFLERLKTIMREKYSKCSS
Description: as §1, §2

[2] = target: T5, recombinant human IL-5 (rhIL-5) (Homo sapiens, UniProt P05113); test: BIAcore: inhibition of IL-5 binding to a heparin chip; details: Biotin-heparin
T5 construct: host or cells: baculovirus expression system
T5 sequence (P05113 20-134): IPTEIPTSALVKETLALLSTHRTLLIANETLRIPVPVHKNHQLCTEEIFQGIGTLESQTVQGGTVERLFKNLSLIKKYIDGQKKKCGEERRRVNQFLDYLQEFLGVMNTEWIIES
Description: as §1, §2

Human leukocyte elastase = target: T6, Human leukocyte elastase (Homo sapiens, UniProt P08246); test: Human leukocyte elastase fluorogenic substrate assay; format: biochemical; details: elastase 5 nM/well, MeOSuc-Ala-Ala-Pro-Val-amido-methylcoumarin 20 μM/well, pH 7.4, 37° C., 60 minutes; read-out: Inhibition of Elastase activity IC50
T6 sequence (P08246 30-267): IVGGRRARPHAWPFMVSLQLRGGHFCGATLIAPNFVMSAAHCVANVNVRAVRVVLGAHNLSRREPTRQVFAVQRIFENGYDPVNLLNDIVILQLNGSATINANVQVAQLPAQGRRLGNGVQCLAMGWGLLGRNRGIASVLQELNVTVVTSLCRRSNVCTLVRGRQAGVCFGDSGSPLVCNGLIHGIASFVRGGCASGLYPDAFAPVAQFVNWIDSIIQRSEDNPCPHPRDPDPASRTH
Description: Elastase is a protein that is a potential target for the treatment of COPD. Elastase assays were performed in 96-well plastic microplates for easy quantification by the fluorescent plate reader. Human leukocyte elastase (5 nM/well) was incubated in the presence ofrabsence of sulfated polysaccharides, with the fluorogenic substrate MeOSuc-Ala-Ala-Pro-Val-amido-methylcoumarin (20 μM/well) in a sodium phosphate buffer, pH 7.4. The mixture was incubated at 37° C. for 60 minutes before the reaction was stopped by the addition of 10 μL/well of […] acetic acid and the mixture transferred to a 96-well microplate with fluorescence being measured using an excitation wavelength of 355 nm and an emission wavelength of 460 nm. Various concentrations of inhibitors were used to allow the calculation of the concentration of anionic oligosaccharide conjugate required to inhibit enzyme activity by 50% (IC50). […] The linked xylopentaose series were not very effective inhibitors of elastase activity. In this assay heparin has an IC50 of approximately 200 nM (Table 6).

Concentration for 50% inhibition of Eotaxin-2 binding to heparin chip, as % of heparin's (eotaxin-2 (CCL24)): 100%
Concentration for 50% inhibition of chemokine binding relative to heparin (IL-8 (CXCL8)): 100%
IC50 relative to heparin (% of heparin IC50) (MCP-1 (CCL2)): 100%
IC50 [1]: 3.3 µM
IC50 [2]: 0.037 µM
IC50 (Human leukocyte elastase): ~0.2 µM
Substance: Heparin
